Patent US12281080B2, “Quinoline-based compounds and methods of inhibiting CDK8/19” (University of South Carolina, priority 2018, dated 2025)

Key:
TGFBR1 = TGFBR1 (Homo sapiens (Human), UniProt P36897); experiment: KINOMEscan scanMAX; type: binding; conditions: 2000 nM; read-out: Percent Control
NEK3 = NEK3 (Homo sapiens (Human), UniProt P51956); experiment: KINOMEscan scanMAX; type: binding; conditions: 2000 nM; read-out: Percent Control
STK33 = STK33 (Homo sapiens (Human), UniProt Q9BYT3); experiment: KINOMEscan scanMAX; type: binding; conditions: 2000 nM; read-out: Percent Control
DRAK1 (STK17A) = DRAK1 (STK17A) (Homo sapiens (Human), UniProt Q9UEE5); experiment: KINOMEscan scanMAX; type: binding; conditions: 2000 nM; read-out: Percent Control
[1] = target: RSK3(Kin.Dom.2-C-terminal) (RPS6KA2) (Homo sapiens (Human), UniProt Q15349); experiment: KINOMEscan scanMAX; type: binding; conditions: 2000 nM; read-out: Percent Control
QSK (KIAA0999) = QSK (KIAA0999) (Homo sapiens (Human), UniProt Q9Y2K2); experiment: KINOMEscan scanMAX; type: binding; conditions: 2000 nM; read-out: Percent Control
ASK2 (MAP3K6) = ASK2 (MAP3K6) (Homo sapiens (Human), UniProt O95382); experiment: KINOMEscan scanMAX; type: binding; conditions: 2000 nM; read-out: Percent Control
AXL = AXL (Homo sapiens (Human), UniProt P30530); experiment: KINOMEscan scanMAX; type: binding; conditions: 2000 nM; read-out: Percent Control
HL60-Luc cells = experiment: HL60-Luc proliferation assay (BLI); type: cell-based; conditions: HL-60-Luc, 168 h; 7 days
Procedure: The anti-leukemic activity was also evaluated with a HL60 assay. The HL60 assay was performed by a similar procedure as MV4-11 assay. A derivative of the HL-60 leukemia cell line was generated to express Luciferase and ZsGreen by lentiviral infection with pHIV-Luc-ZsGreen, to enable leukemia growth analysis by bioluminescence imaging (BLI). The initial Luciferase-ZsGreen transduced cell population was sorted for ZsGreen positivity with fluorescence activated cell sorting and individual clones were tested for luciferase expression. […] The HL-60 assay was performed in 96-well plates by treating the HL60-Luc cells with testing compounds at different concentrations for 7 days, followed by BLI to quantify the effects of test articles on cell proliferation.

PAK7 = PAK7 (Homo sapiens (Human), UniProt Q9P286); experiment: KINOMEscan scanMAX; type: binding; conditions: 2000 nM; read-out: Percent Control
DYRK1A = DYRK1A (Homo sapiens (Human), UniProt Q13627); experiment: KINOMEscan scanMAX; type: binding; conditions: 2000 nM; read-out: Percent Control
FLT3(ITD, D835V) = experiment: KINOMEscan scanMAX; type: binding, human; conditions: 2000 nM
YANK3 (STK32C) = YANK3 (STK32C) (Homo sapiens (Human), UniProt Q86UX6); experiment: KINOMEscan scanMAX; type: binding; conditions: 2000 nM; read-out: Percent Control
MEK2 (MAP2K2) = MEK2 (MAP2K2) (Homo sapiens (Human), UniProt P36507); experiment: KINOMEscan scanMAX; type: binding; conditions: 2000 nM; read-out: Percent Control
FLT3(ITD) = experiment: KINOMEscan scanMAX; type: binding, human; conditions: 2000 nM
PFTK1 (CDK14) = PFTK1 (CDK14) (Homo sapiens (Human), UniProt O94921); experiment: KINOMEscan scanMAX; type: binding; conditions: 2000 nM; read-out: Percent Control
[2] = target: RSK2(Kin.Dom.2-C-terminal) (RPS6KA3) (Homo sapiens (Human), UniProt P51812); experiment: KINOMEscan scanMAX; type: binding; conditions: 2000 nM; read-out: Percent Control
ULK2 = ULK2 (Homo sapiens (Human), UniProt Q8IYT8); experiment: KINOMEscan scanMAX; type: binding; conditions: 2000 nM; read-out: Percent Control
MUSK = MUSK (Homo sapiens (Human), UniProt O15146); experiment: KINOMEscan scanMAX; type: binding; conditions: 2000 nM; read-out: Percent Control
DMPK2 (CDC42BPG) = DMPK2 (CDC42BPG) (Homo sapiens (Human), UniProt Q6DT37); experiment: KINOMEscan scanMAX; type: binding; conditions: 2000 nM; read-out: Percent Control
TRKB (NTRK2) = TRKB (NTRK2) (Homo sapiens (Human), UniProt Q16620); experiment: KINOMEscan scanMAX; type: binding; conditions: 2000 nM; read-out: Percent Control
ARK5 (NUAK1) = ARK5 (NUAK1) (Homo sapiens (Human), UniProt O60285); experiment: KINOMEscan scanMAX; type: binding; conditions: 2000 nM; read-out: Percent Control
NDR2 (STK38L) = NDR2 (STK38L) (Homo sapiens (Human), UniProt Q9Y2H1); experiment: KINOMEscan scanMAX; type: binding; conditions: 2000 nM; read-out: Percent Control
LYN = LYN (Homo sapiens (Human), UniProt P07948); experiment: KINOMEscan scanMAX; type: binding; conditions: 2000 nM; read-out: Percent Control
[3] = target: ABL1(H396P)-nonphosphorylated (Homo sapiens (Human), UniProt P00519, H396P); experiment: KINOMEscan scanMAX; type: binding; conditions: 2000 nM; read-out: Percent Control
CDK7 = CDK7 (Homo sapiens (Human), UniProt P50613); experiment: KINOMEscan scanMAX; type: binding; conditions: 2000 nM; read-out: Percent Control
RET(V804L) = RET(V804L) (Homo sapiens (Human), UniProt P07949, V804L); experiment: KINOMEscan scanMAX; type: binding; conditions: 2000 nM; read-out: Percent Control
[4] = target: RSK4(Kin.Dom.1-N-terminal) (RPS6KA6) (Homo sapiens (Human), UniProt Q9UK32); experiment: KINOMEscan scanMAX; type: binding; conditions: 2000 nM; read-out: Percent Control
[5] = target: ABL1(F317L)-nonphosphorylated (Homo sapiens (Human), UniProt P00519, F317L); experiment: KINOMEscan scanMAX; type: binding; conditions: 2000 nM; read-out: Percent Control
YSK1 (STK25) = YSK1 (STK25) (Homo sapiens (Human), UniProt O00506); experiment: KINOMEscan scanMAX; type: binding; conditions: 2000 nM; read-out: Percent Control
LATS2 = LATS2 (Homo sapiens (Human), UniProt Q9NRM7); experiment: KINOMEscan scanMAX; type: binding; conditions: 2000 nM; read-out: Percent Control
[6] = target: RPS6KA5(Kin.Dom.2-C-terminal) (Homo sapiens (Human), UniProt O75582); experiment: KINOMEscan scanMAX; type: binding; conditions: 2000 nM; read-out: Percent Control
CSK = CSK (Homo sapiens (Human), UniProt P41240); experiment: KINOMEscan scanMAX; type: binding; conditions: 2000 nM; read-out: Percent Control
PIK3CA(H1047Y) = PIK3CA(H1047Y) (Homo sapiens (Human), UniProt P42336, H1047Y); experiment: KINOMEscan scanMAX; type: binding; conditions: 2000 nM; read-out: Percent Control
EGFR(L747-T751del, Sins) = EGFR(L747-T751del, Sins) (Homo sapiens (Human), UniProt P00533, DEL747-751/INS746S); experiment: KINOMEscan scanMAX; type: binding; conditions: 2000 nM; read-out: Percent Control

Sequence of CDK7 (P50613 whole entry): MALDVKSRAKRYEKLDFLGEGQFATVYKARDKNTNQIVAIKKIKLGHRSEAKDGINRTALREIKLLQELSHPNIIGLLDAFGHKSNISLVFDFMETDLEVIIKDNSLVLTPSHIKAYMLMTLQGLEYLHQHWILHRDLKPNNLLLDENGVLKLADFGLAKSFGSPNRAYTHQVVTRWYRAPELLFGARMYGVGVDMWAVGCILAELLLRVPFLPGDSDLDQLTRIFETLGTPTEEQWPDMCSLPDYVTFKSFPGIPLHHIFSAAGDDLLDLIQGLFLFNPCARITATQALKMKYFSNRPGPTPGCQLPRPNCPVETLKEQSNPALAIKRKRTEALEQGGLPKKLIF
Sequence of LATS2 (Q9NRM7 whole entry): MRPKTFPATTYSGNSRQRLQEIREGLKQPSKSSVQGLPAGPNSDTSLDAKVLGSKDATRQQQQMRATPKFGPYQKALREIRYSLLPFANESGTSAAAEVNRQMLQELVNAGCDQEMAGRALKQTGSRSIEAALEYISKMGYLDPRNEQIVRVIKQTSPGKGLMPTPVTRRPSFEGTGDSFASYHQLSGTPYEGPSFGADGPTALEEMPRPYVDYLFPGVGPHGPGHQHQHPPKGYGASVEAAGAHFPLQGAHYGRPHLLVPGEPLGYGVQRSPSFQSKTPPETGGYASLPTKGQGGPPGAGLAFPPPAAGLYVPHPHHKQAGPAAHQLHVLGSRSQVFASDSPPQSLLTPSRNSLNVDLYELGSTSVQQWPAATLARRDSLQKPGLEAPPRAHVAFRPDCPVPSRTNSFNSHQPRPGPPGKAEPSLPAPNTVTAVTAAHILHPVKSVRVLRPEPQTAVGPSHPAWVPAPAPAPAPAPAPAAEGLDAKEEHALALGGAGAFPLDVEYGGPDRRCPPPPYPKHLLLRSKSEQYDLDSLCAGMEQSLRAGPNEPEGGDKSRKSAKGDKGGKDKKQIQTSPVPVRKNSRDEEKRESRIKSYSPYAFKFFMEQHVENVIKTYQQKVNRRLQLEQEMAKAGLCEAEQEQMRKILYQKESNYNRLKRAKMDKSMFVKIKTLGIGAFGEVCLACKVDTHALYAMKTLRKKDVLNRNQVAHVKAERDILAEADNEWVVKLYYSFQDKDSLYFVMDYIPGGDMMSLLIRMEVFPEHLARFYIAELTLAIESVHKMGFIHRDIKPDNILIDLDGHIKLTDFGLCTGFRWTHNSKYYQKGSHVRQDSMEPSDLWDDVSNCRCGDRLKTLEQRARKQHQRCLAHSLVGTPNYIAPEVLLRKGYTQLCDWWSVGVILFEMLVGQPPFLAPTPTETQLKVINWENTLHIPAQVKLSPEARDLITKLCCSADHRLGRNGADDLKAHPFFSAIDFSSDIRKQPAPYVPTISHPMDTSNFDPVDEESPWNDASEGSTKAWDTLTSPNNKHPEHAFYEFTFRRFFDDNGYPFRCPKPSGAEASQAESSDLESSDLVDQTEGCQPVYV
Sequence of MEK2 (MAP2K2) (P36507 whole entry): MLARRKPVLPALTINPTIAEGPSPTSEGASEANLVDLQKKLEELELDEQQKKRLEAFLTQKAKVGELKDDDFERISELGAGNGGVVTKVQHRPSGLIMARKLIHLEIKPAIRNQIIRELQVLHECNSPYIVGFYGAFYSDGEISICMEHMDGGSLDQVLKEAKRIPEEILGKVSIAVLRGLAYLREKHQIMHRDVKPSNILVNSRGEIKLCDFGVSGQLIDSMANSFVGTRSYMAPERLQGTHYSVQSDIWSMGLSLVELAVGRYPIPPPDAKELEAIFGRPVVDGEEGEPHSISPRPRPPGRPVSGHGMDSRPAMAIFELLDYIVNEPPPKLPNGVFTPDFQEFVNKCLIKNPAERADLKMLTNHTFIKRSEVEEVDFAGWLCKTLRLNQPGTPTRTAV
Sequence of RSK2(Kin.Dom.2-C-terminal) (RPS6KA3) (P51812 422-679): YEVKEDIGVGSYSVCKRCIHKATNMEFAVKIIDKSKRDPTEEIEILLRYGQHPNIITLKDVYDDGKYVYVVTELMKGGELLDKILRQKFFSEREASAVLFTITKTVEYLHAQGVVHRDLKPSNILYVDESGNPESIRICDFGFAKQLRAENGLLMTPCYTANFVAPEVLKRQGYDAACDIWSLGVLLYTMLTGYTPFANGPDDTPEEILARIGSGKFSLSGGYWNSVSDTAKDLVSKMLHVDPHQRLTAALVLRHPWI
Sequence of TGFBR1 (P36897 34-503): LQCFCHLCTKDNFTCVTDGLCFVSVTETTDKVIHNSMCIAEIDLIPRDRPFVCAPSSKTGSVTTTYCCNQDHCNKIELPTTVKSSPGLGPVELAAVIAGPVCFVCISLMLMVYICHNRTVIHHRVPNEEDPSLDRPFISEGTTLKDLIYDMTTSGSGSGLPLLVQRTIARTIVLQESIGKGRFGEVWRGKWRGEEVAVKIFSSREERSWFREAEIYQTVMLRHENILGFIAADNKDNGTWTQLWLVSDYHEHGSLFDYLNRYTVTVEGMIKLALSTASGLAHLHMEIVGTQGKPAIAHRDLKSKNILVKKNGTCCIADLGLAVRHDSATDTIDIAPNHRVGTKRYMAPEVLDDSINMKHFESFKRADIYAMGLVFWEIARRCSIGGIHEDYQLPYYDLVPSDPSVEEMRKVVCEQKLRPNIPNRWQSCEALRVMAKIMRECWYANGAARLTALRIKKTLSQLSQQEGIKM
Sequence of ULK2 (Q8IYT8 whole entry): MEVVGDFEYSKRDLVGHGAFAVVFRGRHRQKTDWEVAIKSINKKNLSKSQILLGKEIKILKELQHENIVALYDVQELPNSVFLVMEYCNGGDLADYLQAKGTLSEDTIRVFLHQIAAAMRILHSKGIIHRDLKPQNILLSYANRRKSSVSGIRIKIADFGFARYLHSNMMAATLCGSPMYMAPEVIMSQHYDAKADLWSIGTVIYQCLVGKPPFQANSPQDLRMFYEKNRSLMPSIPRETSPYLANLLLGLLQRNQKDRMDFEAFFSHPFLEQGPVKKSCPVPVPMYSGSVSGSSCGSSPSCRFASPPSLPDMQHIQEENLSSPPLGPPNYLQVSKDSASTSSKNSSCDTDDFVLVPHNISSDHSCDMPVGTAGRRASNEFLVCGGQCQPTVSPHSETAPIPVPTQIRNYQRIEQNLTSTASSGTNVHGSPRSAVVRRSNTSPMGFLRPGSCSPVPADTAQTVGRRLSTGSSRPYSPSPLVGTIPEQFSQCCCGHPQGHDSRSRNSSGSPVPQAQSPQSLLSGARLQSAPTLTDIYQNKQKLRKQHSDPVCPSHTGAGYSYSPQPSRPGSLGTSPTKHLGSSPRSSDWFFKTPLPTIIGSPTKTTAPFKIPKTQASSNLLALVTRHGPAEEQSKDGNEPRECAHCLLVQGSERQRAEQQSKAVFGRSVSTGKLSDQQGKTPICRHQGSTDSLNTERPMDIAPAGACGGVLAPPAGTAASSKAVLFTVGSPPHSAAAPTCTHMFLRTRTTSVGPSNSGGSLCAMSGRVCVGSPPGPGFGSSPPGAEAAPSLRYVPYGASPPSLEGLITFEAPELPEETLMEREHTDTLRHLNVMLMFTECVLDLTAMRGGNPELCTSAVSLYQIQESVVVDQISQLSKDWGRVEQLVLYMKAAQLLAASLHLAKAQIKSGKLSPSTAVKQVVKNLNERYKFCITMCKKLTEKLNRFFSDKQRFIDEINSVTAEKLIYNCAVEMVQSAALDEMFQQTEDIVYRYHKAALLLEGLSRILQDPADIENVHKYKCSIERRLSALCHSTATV
Sequence of STK33 (Q9BYT3 whole entry): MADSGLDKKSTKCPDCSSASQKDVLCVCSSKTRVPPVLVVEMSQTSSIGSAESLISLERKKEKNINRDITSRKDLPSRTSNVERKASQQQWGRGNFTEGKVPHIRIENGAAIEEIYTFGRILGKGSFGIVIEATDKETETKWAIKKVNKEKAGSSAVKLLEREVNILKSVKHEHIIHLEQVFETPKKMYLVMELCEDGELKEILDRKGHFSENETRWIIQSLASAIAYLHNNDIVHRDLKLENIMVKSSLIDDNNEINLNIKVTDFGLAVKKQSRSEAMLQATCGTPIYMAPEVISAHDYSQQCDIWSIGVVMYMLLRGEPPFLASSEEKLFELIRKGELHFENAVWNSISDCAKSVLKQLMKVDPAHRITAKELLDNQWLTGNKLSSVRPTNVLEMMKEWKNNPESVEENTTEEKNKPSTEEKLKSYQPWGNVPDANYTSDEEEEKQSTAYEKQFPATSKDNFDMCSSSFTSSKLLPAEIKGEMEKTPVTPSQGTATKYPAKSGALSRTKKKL
Sequence of PAK7 (Q9P286 whole entry): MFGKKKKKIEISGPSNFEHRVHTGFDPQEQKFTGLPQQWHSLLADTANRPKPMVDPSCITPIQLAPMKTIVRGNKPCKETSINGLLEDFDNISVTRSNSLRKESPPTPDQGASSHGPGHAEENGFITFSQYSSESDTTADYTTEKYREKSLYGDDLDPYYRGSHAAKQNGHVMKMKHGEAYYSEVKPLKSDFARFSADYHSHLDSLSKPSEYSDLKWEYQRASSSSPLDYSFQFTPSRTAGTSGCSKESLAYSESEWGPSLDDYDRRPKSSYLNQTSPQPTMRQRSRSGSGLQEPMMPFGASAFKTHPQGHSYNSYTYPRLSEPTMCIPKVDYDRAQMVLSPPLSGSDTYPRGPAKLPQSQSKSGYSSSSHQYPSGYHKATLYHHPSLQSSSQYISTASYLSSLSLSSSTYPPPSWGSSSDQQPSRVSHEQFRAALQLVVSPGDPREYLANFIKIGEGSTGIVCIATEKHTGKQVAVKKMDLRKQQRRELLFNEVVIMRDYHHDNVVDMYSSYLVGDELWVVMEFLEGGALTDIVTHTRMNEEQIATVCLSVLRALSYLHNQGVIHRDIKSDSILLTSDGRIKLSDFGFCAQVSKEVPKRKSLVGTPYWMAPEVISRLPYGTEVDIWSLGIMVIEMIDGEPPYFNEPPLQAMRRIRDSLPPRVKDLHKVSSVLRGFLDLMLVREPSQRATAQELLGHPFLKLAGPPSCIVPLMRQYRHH

CN1CCN(C(=O)c2ccc3cc(CCNc4ccnc5ccc(C#N)cc45)ccc3c2)CC1 [compound 6148, 4-((2-(6-(4-methylpiperazine-1-carbonyl)naphthalen-2-yl)ethyl)amino)quinoline-6-carbonitrile]
remaining binding at 2 µM (TGFBR1): 100% | remaining binding at 2 µM (NEK3): 60% | remaining binding at 2 µM (STK33): 93% | remaining binding at 2 µM (DRAK1 (STK17A)): 100% | remaining binding at 2 µM [1]: 91% | remaining binding at 2 µM (QSK (KIAA0999)): 55% | remaining binding at 2 µM (ASK2 (MAP3K6)): 79% | remaining binding at 2 µM (AXL): 95% | IC50 (HL60-Luc cells): 114 nM | remaining binding at 2 µM (PAK7): 100% | remaining binding at 2 µM (DYRK1A): 63% | Percent Control (FLT3(ITD, D835V)): 55% | remaining binding at 2 µM (YANK3 (STK32C)): 100% | remaining binding at 2 µM (MEK2 (MAP2K2)): 64% | Percent Control (FLT3(ITD)): 97% | remaining binding at 2 µM (PFTK1 (CDK14)): 98% | remaining binding at 2 µM [2]: 65% | remaining binding at 2 µM (ULK2): 71% | remaining binding at 2 µM (MUSK): 90% | remaining binding at 2 µM (DMPK2 (CDC42BPG)): 83% | remaining binding at 2 µM (TRKB (NTRK2)): 57% | remaining binding at 2 µM (ARK5 (NUAK1)): 89% | remaining binding at 2 µM (NDR2 (STK38L)): 96% | remaining binding at 2 µM (LYN): 88% | remaining binding at 2 µM [3]: 73% | remaining binding at 2 µM (CDK7): 69% | remaining binding at 2 µM (RET(V804L)): 88% | remaining binding at 2 µM [4]: 60% | remaining binding at 2 µM [5]: 93% | remaining binding at 2 µM (YSK1 (STK25)): 83% | remaining binding at 2 µM (LATS2): 88% | remaining binding at 2 µM [6]: 100% | remaining binding at 2 µM (CSK): 85% | remaining binding at 2 µM (PIK3CA(H1047Y)): 91% | remaining binding at 2 µM (EGFR(L747-T751del, Sins)): 74%
